Results as given in US20240101570A1 (AMGEN INC., priority 2020, published 2024).
One block for each compound: values may come before it.

Columns and labels:
[1] = test system: HCT116 WT cells; assay: HCT116 WT cell proliferation / viability (CellTiter-Glo, 6 days); assay type: cell-based; details: Homo sapiens, HCT-116, 144 h, HCT116 WT cells, 6 days, CellTiter-Glo; read-out: HCT-116 WT IC50
How it was run: (§1)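 Viability read by CellTiter-Glo after 6-day compound exposure of MTAP-null and wild-type HCT116 cells grown in RPMI 1640 with 10% FBS. Dosing used 1:3 steps from 1 or 10 μM (8-9 points) or 1:2 steps from 10 or 50 μM (22 points); IC50 taken where fitted curve crosses 50% of control.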

[2] = test system: HCT116 MTAP null cells; assay: HCT116 MTAP null cell proliferation / viability (CellTiter-Glo, 6 days); assay type: cell-based; details: HCT116-MTAP null, 144 h, HCT116 MTAP null cells, 6 days, CellTiter-Glo; read-out: HCT-116 MTAP null IC50
How it was run: as §1

SMILES: C[C@H](c1ncccn1)N(Cc1cc2c(cn1)OCCC2)C(=O)c1cc2c3c(c(N)nc2cn1)COC3 [Example 686, 4-amino-N-(3,4-dihydro-2H-pyrano[2,3-c]pyridin-6-ylmethyl)-N-((1R)-1-(2-pyrimidinyl)ethyl)-1,3-dihydrofuro[3,4-c][1,7]naphthyridine-8-carboxamide]
IC50 [1]: 8800 nM
IC50 [2]: 445 nM

SMILES: Nc1nc2cnc(C(=O)N(Cc3ccc(C(F)(F)F)nn3)CC3CC3)cc2c2c1COC2 [Example 688, 4-amino-N-(cyclopropylmethyl)-N-((6-(trifluoromethyl)-3-pyridazinyl)methyl)-1,3-dihydrofuro[3,4-c][1,7]naphthyridine-8-carboxamide]
IC50 [1]: 3440 nM
IC50 [2]: 81 nM

SMILES: Nc1nc2cnc(C(=O)N(Cc3ccc(C(F)(F)F)cn3)C34CC(C3)C4)cc2c2c1COC2 [Example 689, 4-amino-N-(bicyclo[1.1.1]pentan-1-yl)-N-((5-(trifluoromethyl)-2-pyridinyl)methyl)-1,3-dihydrofuro[3,4-c][1,7]naphthyridine-8-carboxamide]
IC50 [1]: 2580 nM
IC50 [2]: 96 nM

SMILES: Nc1nc2cnc(C(=O)N(Cc3ccc(C(F)(F)F)cn3)c3cnn(C4CC4)c3)cc2c2c1COC2 [Example 690, 4-amino-N-(1-cyclopropyl-1H-pyrazol-4-yl)-N-((5-(trifluoromethyl)-2-pyridinyl)methyl)-1,3-dihydrofuro[3,4-c][1,7]naphthyridine-8-carboxamide]
IC50 [1]: 4170 nM
IC50 [2]: 71 nM

SMILES: Cn1cc(N(Cc2ccc(C(F)F)cn2)C(=O)c2cc3c4c(c(N)nc3cn2)COC4)cn1 [Example 691, 4-amino-N-((5-(difluoromethyl)-2-pyridinyl)methyl)-N-(1-methyl-1H-pyrazol-4-yl)-1,3-dihydrofuro[3,4-c][1,7]naphthyridine-8-carboxamide]
IC50 [1]: 3880 nM
IC50 [2]: 127 nM

SMILES: CCN(Cc1ccc(C(F)(F)F)nn1)C(=O)c1ccc2nc(N)c3c(c2c1)COC3 [Example 695, 4-amino-N-ethyl-N-((6-(trifluoromethyl)-3-pyridazinyl)methyl)-1,3-dihydrofuro[3,4-c]quinoline-8-carboxamide]
IC50 [1]: 4990 nM
IC50 [2]: 210 nM

SMILES: CCN(Cc1ccc(C(F)(F)F)nn1)C(=O)c1cc2c3c(c(N)nc2cn1)COC3 [Example 696, 4-amino-N-ethyl-N-((6-(trifluoromethyl)-3-pyridazinyl)methyl)-1,3-dihydrofuro[3,4-c][1,7]naphthyridine-8-carboxamide]
IC50 [1]: > 10000 nM
IC50 [2]: 261 nM

SMILES: CN(Cc1ccc(Cl)cn1)C(=O)c1ccc2nc(N)c3c(c2c1)COC3 [Example 702, 4-amino-N-((5-chloro-2-pyridinyl)methyl)-N-methyl-1,3-dihydrofuro[3,4-c]quinoline-8-carboxamide]
IC50 [1]: 4120 nM
IC50 [2]: 470 nM

SMILES: CCN(Cc1ccc(C(F)(F)F)nc1)C(=O)c1cc2c3c(c(N)nc2cn1)COC3 [Example 704, 4-amino-N-ethyl-N-((6-(trifluoromethyl)-3-pyridinyl)methyl)-1,3-dihydrofuro[3,4-c][1,7]naphthyridine-8-carboxamide]
IC50 [1]: > 10000 nM
IC50 [2]: 549 nM

SMILES: CCN(Cc1ccc(Br)nn1)C(=O)c1ccc2nc(N)c3c(c2c1)COC3 [Example 708, 4-amino-N-((6-bromo-3-pyridazinyl)methyl)-N-ethyl-1,3-dihydrofuro[3,4-c]quinoline-8-carboxamide]
IC50 [1]: 8220 nM
IC50 [2]: 153 nM

SMILES: CCN(Cc1ccc(Br)nn1)C(=O)c1cc2c3c(c(N)nc2cn1)COC3 [Example 710, 4-amino-N-((6-bromo-3-pyridazinyl)methyl)-N-ethyl-1,3-dihydrofuro[3,4-c][1,7]naphthyridine-8-carboxamide]
IC50 [1]: > 10000 nM
IC50 [2]: 484 nM

SMILES: Cn1cc(N(Cc2ccc(C(F)(F)F)nn2)C(=O)c2cc3c4c(c(N)nc3cn2)COC4)cn1 [Example 711, 4-amino-N-(1-methyl-1H-pyrazol-4-yl)-N-((6-(trifluoromethyl)-3-pyridazinyl)methyl)-1,3-dihydrofuro[3,4-c][1,7]naphthyridine-8-carboxamide]
IC50 [1]: 4780 nM
IC50 [2]: 148 nM

SMILES: Nc1nc2cnc(C(=O)N(Cc3ccc(C(F)(F)F)nn3)CC(F)(F)F)cc2c2c1COC2 [Example 712, 4-amino-N-(2,2,2-trifluoroethyl)-N-((6-(trifluoromethyl)-3-pyridazinyl)methyl)-1,3-dihydrofuro[3,4-c][1,7]naphthyridine-8-carboxamide]
IC50 [1]: > 50000 nM
IC50 [2]: 2000 nM

SMILES: Cn1cc(N(Cc2ccc(C(F)(F)F)cn2)C(=O)c2cc3c4c(c(N)nc3cc2F)COC4)cn1 [Example 714, 4-amino-7-fluoro-N-(1-methyl-1H-pyrazol-4-yl)-N-((5-(trifluoromethyl)-2-pyridinyl)methyl)-1,3-dihydrofuro[3,4-c]quinoline-8-carboxamide]
IC50 [1]: 124 nM
IC50 [2]: 8 nM

Next, values leading:

IC50 [1]: > 10000 nM
IC50 [2]: 449 nM
SMILES: CN(Cc1ccc(C(F)(F)F)cc1)C(=O)c1cc2c3c(c(N)nc2cn1)COC3 [Example 692, 4-amino-N-methyl-N-(4-(trifluoromethyl)benzyl)-1,3-dihydrofuro[3,4-c][1,7]naphthyridine-8-carboxamide]

IC50 [1]: > 10000 nM
IC50 [2]: 2020 nM
SMILES: CN(Cc1ccc(C(F)(F)F)nc1)C(=O)c1cc2c3c(c(N)nc2cn1)COC3 [Example 693, 4-amino-N-methyl-N-((6-(trifluoromethyl)-3-pyridinyl)methyl)-1,3-dihydrofuro[3,4-c][1,7]naphthyridine-8-carboxamide]

IC50 [1]: > 10000 nM
IC50 [2]: 415 nM
SMILES: CN(Cc1ccc(Cl)cn1)C(=O)c1cc2c3c(c(N)nc2cn1)COC3 [Example 694, 4-amino-N-((5-chloro-2-pyridinyl)methyl)-N-methyl-1,3-dihydrofuro[3,4-c][1,7]naphthyridine-8-carboxamide]

IC50 [1]: 4500 nM
IC50 [2]: 206 nM
SMILES: CCN(Cc1ccc(Cl)cn1)C(=O)c1cc2c3c(c(N)nc2cn1)COC3 [Example 698, 4-amino-N-((5-chloro-2-pyridinyl)methyl)-N-ethyl-1,3-dihydrofuro[3,4-c][1,7]naphthyridine-8-carboxamide]

IC50 [1]: 7250 nM
IC50 [2]: 193 nM
SMILES: CCN(Cc1ccc(Cl)cn1)C(=O)c1ccc2nc(N)c3c(c2c1)COC3 [Example 701, 4-amino-N-((5-chloro-2-pyridinyl)methyl)-N-ethyl-1,3-dihydrofuro[3,4-c]quinoline-8-carboxamide]

IC50 [1]: 8150 nM
IC50 [2]: 337 nM
SMILES: CCN(Cc1ccc(C(F)(F)F)nc1)C(=O)c1ccc2nc(N)c3c(c2c1)COC3 [Example 703, 4-amino-N-ethyl-N-((6-(trifluoromethyl)-3-pyridinyl)methyl)-1,3-dihydrofuro[3,4-c]quinoline-8-carboxamide]

IC50 [1]: 3450 nM
IC50 [2]: 172 nM
SMILES: CCN(Cc1ccc(C(F)(F)F)cc1)C(=O)c1ccc2nc(N)c3c(c2c1)COC3 [Example 706, 4-amino-N-ethyl-N-(4-(trifluoromethyl)benzyl)-1,3-dihydrofuro[3,4-c]quinoline-8-carboxamide]

IC50 [1]: 2870 nM
IC50 [2]: 106 nM
SMILES: CCN(Cc1ccc(C(F)(F)F)cc1)C(=O)c1cc2c3c(c(N)nc2cn1)COC3 [Example 707, 4-amino-N-ethyl-N-(4-(trifluoromethyl)benzyl)-1,3-dihydrofuro[3,4-c][1,7]naphthyridine-8-carboxamide]

IC50 [1]: > 50000 nM
IC50 [2]: 5110 nM
SMILES: Nc1nc2ccc(C(=O)N(Cc3ccc(C(F)(F)F)nn3)C3COC3)cc2c2c1COC2 [Example 713, 4-amino-N-(3-oxetanyl)-N-((6-(trifluoromethyl)-3-pyridazinyl)methyl)-1,3-dihydrofuro[3,4-c]quinoline-8-carboxamide]

IC50 [1]: 70 nM
IC50 [2]: 6 nM
SMILES: Cn1cc(N(Cc2ccc(C(F)(F)F)cn2)C(=O)c2cc3c4c(c(N)nc3cc2Cl)COC4)cn1 [Example 715, 4-amino-7-chloro-N-(1-methyl-1H-pyrazol-4-yl)-N-((5-(trifluoromethyl)-2-pyridinyl)methyl)-1,3-dihydrofuro[3,4-c]quinoline-8-carboxamide]

IC50 [1]: 7760 nM
IC50 [2]: 609 nM
SMILES: CC(C)N(Cc1ccc(Cl)cn1)C(=O)c1ccc2nc(N)c3c(c2c1)COC3 [Example 717, 4-amino-N-((5-chloro-2-pyridinyl)methyl)-N-(2-propanyl)-1,3-dihydrofuro[3,4-c]quinoline-8-carboxamide]

IC50 [1]: 16400 nM
IC50 [2]: 281 nM
SMILES: CC(C)N(Cc1ccc(Cl)cn1)C(=O)c1cc2c3c(c(N)nc2cn1)COC3 [Example 718, 4-amino-N-((5-chloro-2-pyridinyl)methyl)-N-(2-propanyl)-1,3-dihydrofuro[3,4-c][1,7]naphthyridine-8-carboxamide]

IC50 [1]: > 50000 nM
IC50 [2]: 14900 nM
SMILES: CCN(Cc1ncn(C)n1)C(=O)c1ccc2nc(N)c3c(c2c1)CO[C@@H]3C [Example 720, (3R)-4-amino-N-ethyl-3-methyl-N-((1-methyl-1H-1,2,4-triazol-3-yl)methyl)-1,3-dihydrofuro[3,4-c]quinoline-8-carboxamide]

IC50 [1]: 9410 nM
IC50 [2]: 209 nM
SMILES: Nc1nc2cnc(C(=O)N(Cc3ccc(C(F)(F)F)nn3)C3CCC3)cc2c2c1COC2 [Example 721, 4-amino-N-cyclobutyl-N-((6-(trifluoromethyl)-3-pyridazinyl)methyl)-1,3-dihydrofuro[3,4-c][1,7]naphthyridine-8-carboxamide]

IC50 [1]: 3350 nM
IC50 [2]: 85 nM
SMILES: C[C@H]1OCc2c1c(N)nc1ccc(C(=O)N(Cc3ccc(C(F)(F)F)nn3)C3CCC3)cc21 [Example 722, (3R)-4-amino-N-cyclobutyl-3-methyl-N-((6-(trifluoromethyl)-3-pyridazinyl)methyl)-1,3-dihydrofuro[3,4-c]quinoline-8-carboxamide]
